Measured values: patent publication US11440935B2, “3″,5″-dimethoxybenzoyl-3′-amino-3′-deoxy adenosine-5′-triphosphates and pharmaceutical uses thereof” (Danmir Therapeutics, LLC, priority 2018, dated 2022)

Assays:
[1] = system: conscious guinea-pigs; assay: Aerosolized ATP-induced bronchoconstriction in conscious guinea-pigs (sRaw); type: in vivo, guinea-pig; conditions: n=6
Procedure: This study was performed in 6 guinea-pigs. The housing room was constantly ventilated, and the temperature kept at ˜23° C. After quarantine, the animals were individually placed in a whole-body, unrestrained, plethysmograph chamber (model PLY3215, Buxco Electronics Inc., Troy, N.Y.) for ˜40 min once a day for two continuous days before the cough test. All GPs were weighed before the cough study.
ATP was purchased from Sigma-Aldrich (Cat #A2383-10G). Solutions of ATP used for aerosol challenge were freshly made just prior to use by dissolving the powder in 0.9% saline (NaCl) solution. Solutions of DT-0111 used for aerosol administration were freshly made by dissolving the powder in 0.9% saline (NaCl) solution.
A plethysmograph chamber was continuously flushed with normoxic (21% O2 and 79% N2) room air at 2 L/min. The same amount of air was drawn through the chamber base outlets using a Buxco bias flow regulator to keep the chamber bias flow balanced. ATP or DT solution was aerosolized by using a vibrating mesh nebulizer (Ireland Ltd., Galway Ireland, AG-AL1100). The output rate of delivered aerosol was around 0.5 ml/min with droplet size (volume median diameter) at 2.5-4.0 μm (manufacture's indications). […]
The results are expressed as percent change in airway pressure (sRaw). n=6; * p<0.05, vs. ATP 0.0 mg/ml; †p<0.05, DT-0111 vs. Ctrl at the same ATP dose.

[2] = system: anesthetized guinea-pigs; assay: ATP-induced bronchoconstriction in anesthetized guinea-pig (tracheal pressure); type: in vivo; conditions: pretreatment with aerosolized DT-0111, anesthetized guinea-pigs
Procedure: Male Dunkin-Hartley guinea pigs (GPs) (220-250 g, Charles River) were quarantined for 14 days. The housing room was constantly ventilated, and the temperature kept at 23° C. Mean body weight of the GPs on day of experiment was 336.0±9.9 g. Anesthesia were induced by using a mixture of ketamine+xylazine (40-80 mg/kg+5-10 mg/kg; IM) as previously published (Zhuang, et al., “High-Frequency Electrical Stimulatino of Cervical Vagi Reduces Airway Response to Methacholine,” World J. of Respirology 2013 Jul. 28; 3(2): 11-19). Supplementary anesthetic doses (¼-½ of the original dose) were administered as needed if ear pinch changed respiratory rate and/or upon the manifestation of an accelerated heart rate. Body temperature was monitored continuously with a rectal thermometer and maintained at approximately 36.5° C. using a heating pad and lamp. […]
The side branch of the tracheal cannulation was connected a pressure transducer. The pressure signal was pre-amplified by a bridge amplifier (AD Instruments Inc., CO) and then digitized and recorded. […] The pressure signal and animal rectal temperature were monitored and digitally recorded continuously in computer files throughout the experiment using the PowerLab/8 sp data acquisition system (AD Instruments) with DELL XPS 8700 computer equipped with Microsoft Windows 7 and LabChart Pro 7 software. […]

[3] = system: nodose ganglion vagal sensory nerve terminals; assay: ATP-induced neural action potentials in guinea-pig lung-vagus preparation ex vivo; conditions: ATP 10 μM; DT-0111 1 mM; innervated guinea-pig lung ex vivo
Procedure: The innervated guinea-pig lung preparation was prepared as was described in Undem B J, Chuaychoo B, Lee M G, Weinreich D, Myers A C, Kollarik M. Subtypes of vagal afferent C-fibres in guinea-pig lungs. J Physiol 2004; 556: 905-917; Weigand L A, Ford A P, Undem B J. A role for ATP in bronchoconstriction-induced activation of guinea pig vagal intrapulmonary C-fibres. J Physiol 2012; 590: 4109-4120. The contents of Undem et al. and Weigand et al. are incorporated herein for the purpose of the preparation of the innervated guinea-pig lung preparation. The response to ATP (10 μM; 1 ml, slowly infused into trachea and pulmonary artery) was assessed as the number of action potentials it elicited. Two control responses 15 minutes apart were recorded. There was not differences in the number of action potentials evoked between the first and second response (p>0.1). Subsequently, the lung superfused and perfused via both trachea and pulmonary artery for 15 min with increasing concentration of DT-0111 and the ATP challenge was repeated. The data were quantified as the total number of action potentials evoked and the peak frequency (Hz) as measured by the most action potentials evoked in any 1 s bin. DT-0111 was prepared in distilled water as a 10 mM solution, and aliquots were stored frozen at −20° C. (1-5 days). […]

Substance: Sodium 3′-N-(3,5-dimethoxybenzoyl)-3′-deoxy-β-D-adenosine 5′-triphosphate [DT-0111]
- effect on aerosolized ATP-induced bronchoconstriction [1]: Suppresses
- tracheal pressure (Ptr) after ATP doses [2]: significantly suppressed
- effect on ATP-induced action potentials [3]: markedly suppresses the effect of ATP
